{"source": "patent US20260041679A1", "about": "“METHOD OF TREATING HYPERTENSION WITH THE ALDOSTERONE SYNTHASE INHIBITOR BAXDROSTAT” (CINCOR PHARMA, INC., priority 2022, published 2026)", "key": {"[1]": {"assay": "Study 121: serum electrolytes and eGFR", "format": "in vivo, human", "excerpt": "Aldosterone plays a direct role in the pathogenesis of hypertension via increasing renal absorption of sodium and water while promoting excretion of potassium. There is the potential therefore for an aldosterone synthesis inhibitor to cause the electrolyte abnormalities of hyperkalemia or hyponatremia. Moreover, the decrease in SBP expected with aldosterone inhibitors will reduce blood flow through the afferent arterioles in the kidney, leading to an apparent decline in determination of eGFR. These potential perturbations in kidney physiology were closely monitored throughout the study via the measurement of serum electrolytes and eGFR."}, "aldosterone synthase": {"target": "T1, aldosterone synthase (Homo sapiens, UniProt P19099)", "T1 construct": "Pharmacodynamic measurements included plasma aldosterone, cortisol, and electrolytes; endogenous in cells; host or cells: human subjects in vivo (healthy volunteers; resistant hypertension patients)", "T1 sequence (P19099 25-503)": "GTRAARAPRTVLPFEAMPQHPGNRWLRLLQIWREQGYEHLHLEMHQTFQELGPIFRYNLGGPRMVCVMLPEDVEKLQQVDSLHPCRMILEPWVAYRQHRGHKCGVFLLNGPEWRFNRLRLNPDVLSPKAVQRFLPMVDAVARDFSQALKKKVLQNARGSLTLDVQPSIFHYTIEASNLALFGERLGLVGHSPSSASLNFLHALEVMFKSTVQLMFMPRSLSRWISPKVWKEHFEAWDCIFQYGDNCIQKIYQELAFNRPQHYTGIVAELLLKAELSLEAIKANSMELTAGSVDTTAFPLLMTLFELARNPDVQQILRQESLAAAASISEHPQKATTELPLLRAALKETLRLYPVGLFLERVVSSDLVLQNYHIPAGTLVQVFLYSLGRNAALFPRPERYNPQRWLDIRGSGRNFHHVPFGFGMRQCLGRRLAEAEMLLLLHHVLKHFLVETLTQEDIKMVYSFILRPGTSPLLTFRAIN", "assay": "Single ascending dose study, pharmacodynamics: aldosterone, cortisol with ACTH challenge (Example 1)", "format": "in vivo", "description": "Eighty-eight healthy male volunteers completed the first-in-human study of baxdrostat. In part 1 of the trial, subjects received a single oral dose of baxdrostat ranging from 1 to 360 mg in order to evaluate safety, tolerability, PK, and pharmacodynamics (PD). Part 2 evaluated the PK of a single 3 mg intravenous dose of baxdrostat."}, "[2]": {"assay": "Multiple ascending dose study, pharmacokinetics (Example 2)", "format": "in vivo, human", "description": "(§1) This randomized, double-blind, placebo-controlled phase 1 study evaluated the safety, pharmacokinetics, and pharmacodynamics of multiple ascending doses of baxdrostat in healthy volunteers. Fifty-six subjects were randomized to receive oral baxdrostat (0.5, 1.5, 2.5, or 5.0 mg) or placebo once daily for ten days and were placed on either a low salt or normal salt diet for the duration of the study. In particular, subjects were randomized into 5 cohorts to receive baxdrostat or placebo once daily for 10 days. Cohorts 1 and 2 were placed on a low salt diet to stimulate aldosterone production and were administered 2.5 or 5.0 mg oral baxdrostat, respectively. Cohorts 1 and 2 also underwent an adrenocorticotropic hormone (ACTH) challenge to increase aldosterone and cortisol levels to evaluate the specificity of baxdrostat for targeting aldosterone synthase. Cohorts 3, 4, and 5 were placed on a normal salt diet and were administered 1.5, 2.5, or 0.5 mg oral baxdrostat, respectively. Blood samples were collected prior to and after dosing on days 1 and 10 for measurement of plasma baxdrostat concentrations to characterize single-dose and steady-state pharmacokinetics. Pharmacodynamic measurements included plasma aldosterone, cortisol, and electrolytes. Safety assessments included physical examination, electrocardiograms, orthostatic vital signs, and clinical laboratory evaluations."}, "[3]": {"assay": "Multiple ascending dose study, safety (Example 2)", "format": "in vivo, human", "details": "0.5 to 5.0 mg once daily, 10 days", "description": "as §1"}, "[4]": {"assay": "Absorption, metabolism and excretion of [14C]-baxdrostat (Example 7)", "format": "in vivo, human", "description": "Eight male subjects each received a single oral 10 mg (containing approximately 100 uCi) dose of baxdrostat. Blood, urine and fecal samples were collected to determine the metabolic and excretion pathways of baxdrostat. Preliminary findings indicate that the mean excretion of radioactivity was 69.4% and 15.3%, of the dose in the urine and feces, respectively. Unchanged baxdrostat was the major component in urine and feces, constituting 16.8% and 6.1% of the dose, respectively."}, "[5]": {"details": "single oral 10 mg [14C] dose, preliminary findings"}}}
{"smiles": "CCC(=O)N[C@@H]1CCCc2c(-c3ccc4c(c3)CCC(=O)N4C)cncc21", "note": "[baxdrostat, (R)—N-(4-(1-methyl-2-oxo-1,2,3,4-tetrahydroquinolin-6-yl)-5,6,7,8-tetrahydroisoquinolin-8-yl) propionamide]", "values": [{"measurement": "AEs of renal impairment", "setting": "[1]; 0.5 mg", "result": "no cases"}, {"measurement": "change in serum potassium from baseline to end of treatment, mean (standard deviation)", "setting": "[1]; 0.5 mg", "result": "0.19 (0.474) mEq/L"}, {"measurement": "change in serum sodium from baseline to end of treatment, mean (SD)", "setting": "[1]; 0.5 mg", "result": "−1.2 (2.73) mEq/L"}, {"measurement": "patients with mild hyponatremia (serum sodium <130 mEq/L)", "setting": "[1]; 0.5 mg", "result": 1, "unit": "patients"}, {"measurement": "AEs of renal impairment", "setting": "[1]; 1 mg", "result": 3}, {"measurement": "change in serum potassium from baseline to end of treatment, mean (standard deviation)", "setting": "[1]; 1 mg", "result": "0.36 (0.481) mEq/L"}, {"measurement": "change in serum sodium from baseline to end of treatment, mean (SD)", "setting": "[1]; 1 mg", "result": "−1.1 (3.03) mEq/L"}, {"measurement": "patients with mild hyponatremia (serum sodium <130 mEq/L)", "setting": "[1]; 1 mg", "result": 7, "unit": "patients"}, {"measurement": "AEs of renal impairment", "setting": "[1]; 2 mg", "result": 1}, {"measurement": "change in serum potassium from baseline to end of treatment, mean", "setting": "[1]; 2 mg", "result": 0.29, "unit": "mEq/L"}, {"measurement": "change in serum sodium from baseline to end of treatment, mean", "setting": "[1]; 2 mg", "result": "−2.4", "unit": "mEq/L"}, {"measurement": "patients with mild hyponatremia (serum sodium <130 mEq/L)", "setting": "[1]; 2 mg", "result": 1, "unit": "patients"}, {"measurement": "mean eGFR", "setting": "[1]; 0.5, 1, 2 mg QD", "result": "mild dose-dependent decrease in mean eGFR"}, {"measurement": "overall rate of moderate hyperkalemia (potassium>6.0 mEq/L)", "setting": "[1]; 2 highest dose groups", "result": 2.2, "unit": "%"}, {"measurement": "patients with moderate hyperkalemia (potassium>6.0 mEq/L)", "setting": "[1]; 2 highest dose groups", "result": 3, "unit": "patients"}, {"measurement": "moderate hypokalemia (potassium 3.0 to 2.5 mEq/L)", "setting": "[1]; any baxdrostat dose groups", "result": "no cases"}, {"measurement": "relationship between dose and serum calcium, serum phosphorus", "setting": "[1]; in vivo", "result": "no apparent relationship"}, {"measurement": "cortisol levels with an adrenocorticotropin hormone challenge", "setting": "aldosterone synthase; single oral dose", "result": "no meaningful effect on cortisol levels"}, {"measurement": "aldosterone levels", "setting": "aldosterone synthase; single oral dose 1 to 360 mg, fasted, low salt and normal salt diet", "result": "significantly reduced aldosterone levels in a dose-dependent manner"}, {"measurement": "plasma levels of baxdrostat vs dose", "setting": "[2]; 0.5 to 5.0 mg once daily", "result": "increased proportionally with ascending doses"}, {"measurement": "time of peak concentrations after dosing", "setting": "[2]; 0.5 to 5.0 mg once daily", "result": "≤ 4", "unit": "h"}, {"measurement": "half-life", "setting": "[2]; human, plasma, oral, 0.5 to 5.0 mg once daily", "result": "26 to 31", "unit": "h"}, {"measurement": "absorption", "setting": "[2]; oral, healthy subjects", "result": "rapidly absorbed"}, {"measurement": "deaths or serious adverse events", "setting": "[3]", "result": "no deaths or serious adverse events"}, {"measurement": "severity of treatment-emergent adverse events", "setting": "[3]", "result": "mild in severity"}, {"measurement": "mean blood:plasma concentration ratios", "setting": "[4]; radioactivity", "result": "low association of radioactivity with blood cells"}, {"measurement": "share of total systemic exposure by AUC0-inf in plasma", "setting": "[4]; single oral 10 mg [14C] dose", "result": 71, "unit": "%"}, {"measurement": "unchanged baxdrostat in feces", "setting": "[4]; single oral 10 mg [14C] dose", "result": "6.1 % of the dose"}, {"measurement": "unchanged baxdrostat in urine", "setting": "[4]; single oral 10 mg [14C] dose", "result": "16.8 % of the dose"}, {"measurement": "mean excretion of radioactivity in feces", "setting": "[4]; [5]", "result": "15.3 % of the dose"}, {"measurement": "mean excretion of radioactivity in urine", "setting": "[4]; [5]", "result": "69.4 % of the dose"}]}
